From PubChem BioAssay (NCI) come the findings set out here.

What all share (assay): NCI tumour cell line growth inhibition, 48 h
In experiment [1] the test system is 786-0 renal.
For experiment [2], the system named is SK-MEL-28 melanoma.
The test system of experiment [3] is MOLT-4 leukemia.
The test system of experiment [4] is SK-MEL-2 melanoma.
The test system of experiment [5] is EKVX NSCLC.
Experiment [6] relates to T-47D breast.
The test system of experiment [7] is CAKI-1 renal.
Experiment [8] relates to OVCAR-4 ovarian.
The test system of experiment [9] is SN12C renal.
The test system of experiment [10] is SR leukemia.

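A five-concentration, 48-hour dose response in 96-well plates underlies each endpoint, interpolated linearly between surrounding concentrations. At the GI50, growth is halved. TGI: total growth inhibition.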

On to `C=C1C(=O)O[C@H]2[C@H]1CC/C(COC(=O)CCSCCC(=O)OC/C1=C/CC[C@@]3(C)O[C@H]3[C@H]3OC(=O)C(=C)[C@@H]3CC1)=C\CC[C@@]1(C)O[C@@H]21`, for which the GI50 in experiment [1] was 0.904 µM; in [2] it was 1.39 µM; in experiment [3], 0.422 µM; in experiment [4], 2.18 µM; in experiment [5], 1.42 µM; in experiment [6], 1.3 µM. The GI50 in experiment [7] is 1.62 µM; in experiment [8], 1.66 µM; in experiment [9], 1.35 µM. The TGI in [1] is 2.21 µM; in experiment [2], 2.86 µM; in experiment [3], 2.12 µM; in experiment [4] it was 4.88 µM; in [5] it was 3.39 µM; in experiment [6], 3.21 µM. Moreover, the values for the TGI in experiment [7], in [8] and in [9] were 3.12 µM, 3.71 µM and 3.62 µM, respectively.

As to `COc1cccc(/C=N/NC(=S)NC2CC3CCC2C3)c1O` (configuration not stated), the GI50 is 19.5 µM in experiment [1]; 13.1 µM in experiment [2]; 10.5 µM in [3]; 18.2 µM in [4]; 3.13 µM in experiment [6]; 3.33 µM in experiment [7]. Further, the GI50 in [8] is 1.82 µM; in experiment [9] it was 5.09 µM; in experiment [10] it was 3.08 µM. Also, the TGI in [1] was 39.6 µM; in experiment [2] it was 33.5 µM; in [3] it was 48.3 µM; in experiment [4] it was 34.9 µM; in experiment [6] it was 11.8 µM; in experiment [7], 15.9 µM. Besides, the values for the TGI in experiment [8], in [9] and in experiment [10] were 4.46 µM, 22.9 µM and 10.8 µM, respectively.

In the case of `FC(F)(F)c1ccc(-c2cnc(-n3cc(COCCN4CCCCC4)nn3)nc2NC2CCCCCC2)cc1`, the GI50 in [1] is 3.73 µM; in experiment [2], 3.6 µM; in experiment [3], 3.73 µM; in experiment [4], 4.42 µM; in experiment [6], 4.12 µM; in [7], 3.51 µM. Besides, the figures for the GI50 in experiment [8], in experiment [9] and in experiment [10] were 3.11 µM, 3.98 µM and 2.61 µM, respectively. The TGI was 7.28 µM in experiment [1]; 6.99 µM in experiment [2]; 9.26 µM in [3]; 8.22 µM in experiment [4]; 9.21 µM in experiment [6]; 7.33 µM in experiment [7]. Also, the TGI in experiment [8] worked out at 6.35 µM; in experiment [9] it was 7.56 µM; in [10] it was 7.73 µM.

For `Cn1nc(-c2ccc(Cl)cc2)nc2c(=O)n(C)c(=O)nc1-2`, the GI50 in [1] is 1.43 µM; in experiment [2], 1.24 µM; in experiment [3], 1.13 µM; in [4], 1.5 µM; in experiment [5], 1.11 µM; in [6], 1.12 µM. The GI50 in [7] is 1.87 µM; in experiment [8] it was 1.2 µM; in experiment [9], 0.706 µM. In addition, the TGI in experiment [1] is 9.65 µM; in [2] it was 3.13 µM; in [3], 3.22 µM; in [4] it was 9.29 µM; in experiment [5], 4.21 µM; in experiment [6], 3.43 µM. Also, the TGI came out at 6.61 µM in [7], 3.3 µM in [8] and 1.45 µM in experiment [9].

On to `COc1ccc(C(c2ccc(OCCN(C)C)cc2)c2cc3ccccc3c3ccccc23)cc1` (configuration not stated), for which the GI50 in experiment [1] is 1.51 µM; in experiment [2] it was 1.63 µM; in [3], 1.58 µM; in experiment [4], 1.54 µM; in experiment [5] it was 1.59 µM; in experiment [6], 1.47 µM. The results for the GI50 in [7], in experiment [8] and in [9] were 1.6 µM, 1.78 µM and 1.74 µM, respectively. Besides, the TGI in [1] was found to be 2.91 µM; in [2], 3.11 µM; in experiment [3] it was 3.42 µM; in experiment [4], 2.97 µM; in experiment [5], 3.3 µM; in experiment [6], 3.12 µM. Further, the TGI in experiment [7] worked out at 3.01 µM; in experiment [8], 3.39 µM; in [9], 3.25 µM.

For the molecule `Cc1cc(S(=O)(=O)/N=C/N(C)C)c(SC(=O)c2ccc(Cl)cc2)cc1Cl`, the GI50 in experiment [1] was 23.8 µM; in experiment [2], 48.9 µM; in experiment [3] it was 61 µM; in [4], 45.8 µM; in experiment [5] it was 17.4 µM; in experiment [7], 36.6 µM. In addition, the GI50 in [8] was 60.1 µM; in experiment [9], 26.8 µM; in experiment [10], 44.6 µM. The TGI in experiment [1] was 67.2 µM; in experiment [2] it was greater than 100 µM; in [3], greater than 100 µM; in experiment [4] it was greater than 100 µM; in experiment [5], 51.1 µM; in [7], 92.3 µM. The figures for the TGI in [8], in experiment [9] and in experiment [10] were greater than 100 µM, 79.8 µM and greater than 100 µM, respectively.

For `CCN(Cc1ccc(F)cc1)c1ccc(CO)c(C)c1`, the GI50 is 13 µM in experiment [1]; 13.3 µM in experiment [2]; 15.5 µM in experiment [3]; 7.58 µM in experiment [4]; 0.92 µM in experiment [6]; 3.28 µM in experiment [7]. Besides, the GI50 was 2.46 µM in experiment [8], 19.3 µM in [9] and 20.3 µM in [10]. The TGI turned out to be 29.5 µM in experiment [1]; 28.6 µM in [2]; 58.8 µM in experiment [3]; 22.8 µM in experiment [4]; 6.95 µM in experiment [6]; 25.5 µM in experiment [7]. The TGI was 14.3 µM in experiment [8], greater than 82.6 µM in experiment [9] and 58.1 µM in experiment [10].

With `COC(=O)C1OC2(CCCC3CC32)O[C@H]1C(=O)OC` (some centres not stated), the TGI in experiment [1], in experiment [2], in experiment [3], in [4], in [5] and in experiment [7] was greater than 100 µM throughout. Moreover, the TGI in experiment [8], in experiment [9] and in [10] was greater than 100 µM throughout.

As to `CCN1C(=O)CCCc2c1ccc(Nc1ncc(Cl)c(NC3[C@@H](C(N)=O)[C@@H]4C=C[C@H]3C4)n1)c2OC` (some centres not stated), the GI50 was 1.87 µM in [1]; 1.56 µM in experiment [2]; 1.41 µM in experiment [3]; 1.44 µM in [4]; 1.91 µM in [6]; 0.919 µM in experiment [7]. For the same molecule, the results for the GI50 in experiment [8], in [9] and in [10] were 1.94 µM, 2.53 µM and 0.0556 µM, respectively. Also, the TGI came to 9.12 µM in [1]; 6.96 µM in experiment [2]; 11.3 µM in experiment [3]; 3.79 µM in [4]; 14.3 µM in experiment [6]; 4.48 µM in experiment [7]. The TGI in experiment [8] was greater than 41.3 µM; in experiment [9], 57.8 µM; in experiment [10] it was 19.7 µM.

Regarding `COc1cccc(CSCC(=O)O)c1`, the TGI in experiment [1], in experiment [2], in experiment [4], in experiment [5], in [6] and in [7] was greater than 100 µM throughout. The TGI in experiment [8] and in experiment [9] was greater than 100 µM throughout.

`Cc1noc2c1C(=O)CCC2`: the TGI in experiment [1], in experiment [2], in experiment [3], in experiment [4], in experiment [5] and in experiment [7] was greater than 100 µM throughout. In addition, the TGI in experiment [8], in experiment [9] and in [10] was greater than 100 µM each time.

`S=C(Nc1ccc(N=Nc2ccccc2)cc1)SCc1ccccc1`: the TGI was 38 µM in experiment [1]; 38 µM in experiment [2]; 27.9 µM in experiment [3]; 50 µM in experiment [4]; 48.6 µM in experiment [5]; greater than 100 µM in [6]. Also, the TGI in experiment [7] was 32.9 µM; in experiment [8], 33.2 µM; in [9], 29.2 µM.

Consider `O=S(=O)(O)c1ccc(N=Nc2nc(C(F)(F)F)c(C(F)(F)F)[nH]2)cc1`, for which the TGI in experiment [1] was greater than 100 µM; in experiment [2], 36.2 µM; in experiment [3] it was greater than 100 µM; in experiment [4], greater than 100 µM; in experiment [5] it was greater than 100 µM; in experiment [7], 89.4 µM. The TGI in experiment [8] is 50.4 µM; in experiment [9] it was greater than 100 µM; in experiment [10], 69.9 µM.

For the molecule `CCCCCCCCCCCCCCCCNCCCN(C)CCCN`, the TGI in [1] turned out to be 28.9 µM; in [2] it was 26.6 µM; in experiment [3] it was 94.1 µM; in [4], 41.8 µM; in experiment [5], 42.8 µM; in [7], 35.8 µM. Further, the TGI in experiment [8] is 32.9 µM; in [9], 41 µM; in experiment [10], 42.2 µM.

`Cc1cc(Nc2nc(-c3cccnc3)nc3ccccc23)n[nH]1`: the GI50 in [1] is 1.31 µM; in experiment [2], 10.1 µM; in experiment [3] it was greater than 57.2 µM; in [6], 2.02 µM; in experiment [7], 0.325 µM; in [8], 2.05 µM. For the same molecule, the results for the GI50 in [9] and in experiment [10] were 3.21 µM and 0.481 µM, respectively. Also, the TGI was greater than 100 µM in experiment [1]; greater than 100 µM in [2]; greater than 100 µM in [3]; greater than 75.4 µM in [6]; greater than 100 µM in experiment [8]; greater than 100 µM in [9]. Further, the TGI in experiment [10] is greater than 38.5 µM.
